According to patent publication US20100324279A1, “CRYSTAL FORMS OF 2-[2-(4-CHLOROPHENYL)ETHOXY]ADENOSINE” (priority 2007, published 2010):
≈ marks a conversion by molar mass, not a printed value. Blank lines part the entries; values can stand above or below the compound they belong to.

Tests used:
[1] = Heat stress studies and variable temperature XRPD; type: physicochemical
Protocol: For heat stress studies, samples of MRE-0094 A-type crystals are heated isothermally at different temperatures to investigate the effect of temperatures on solid state conversions. The samples are heated for up to 15 min. The solid material is allowed to cool before analyzing by XRPD.
(2 min). Variable temperature XRPD (VT-XRPD) may be performed on A-type crystals of MRE-0094 to better understand its thermal behavior. […] The sample remains as B-type crystals up to 165° C. […] It is likely that the melting of B-type crystals, subsequent recrystallization, and final melting of the solid occurs too fast to be captured by VT-XRPD. Based on the VT-XRPD data, the thermal events observed by DSC at approximately 117° C. and 126° C. are due to the solid conversion followed by the subsequent recrystallization to form B-type crystals.

[2] = Moisture sorption/desorption analysis; type: physicochemical; conditions: for Solid material after moisture sorption identified by XRPD: after sorption/desorption 5 to 95% RH; for Moisture sorption: total weight gain: between 5% and 95% relative humidity (RH); for Hygroscopicity based on the moisture sorption data: exposed to high relative humidity; for Weight lost upon desorption: after sorption to 95% RH
Protocol: Moisture sorption/desorption analyses may be performed, e.g., on a VTI SGA-100 Vapor Sorption Analyzer Sorption and desorption data are collected, e.g., over a range of 5 to 95% relative humidity (RH) at 10% RH intervals under a nitrogen purge. Samples need not to be dried prior to analysis. Equilibrium criteria used for analysis are, e.g., less than 0.01% weight change in 5 min, with a maximum equilibration time of 3 h if the weight criterion is not met NaCl and PVP may used as calibration standards.

[3] = Approximate solubilities of A-type crystals of MRE-0094 in test solvents; type: physicochemical; conditions: organic solvent or mixture, thermodynamic from solid; PG, RT; agitated two days, calculated from difference between starting and ending weights
[4] = as above; type: physicochemical; conditions: thermodynamic from solid
Protocol: Weighed samples of MRE-0094 (typically 30-60 mg) are treated with aliquots of the test solvent. Solvents are either reagent or HPLC grade. The aliquots are usually 200 μL or 500 μL. Between additions the mixtures are sonicated. […] Note that actual solubilities may be greater than those calculated due to the volume of the solvent aliquots or to a slow rate of dissolution. […] The solubilities are reported to the nearest mg/mL.

[5] = Desolvation/dehydration studies under various drying conditions (XRPD); type: physicochemical; conditions: for Solid form after exposure to ambient conditions: eight days
Protocol: Desolvation studies under various conditions may be performed to investigate the effects of drying conditions on the C-type crystals. […] However, the anhydrous form to which C-type crystals convert may be dependent on the drying conditions and temperature.
Desolvation studies under various conditions may be conducted to investigate the effects of drying conditions on F-type crystals.
Dehydration studies under various conditions are performed to investigate the effects of drying conditions on the I-type crystals.

[6] = Stability to mechanical grinding/milling followed by vapor stress (XRPD); type: physicochemical; conditions: ball-milling, then about 97% relative humidity, K2SO4 humidity jar, 1 day
Source text: Stability to grinding may be assessed by measurement of an appropriate physical property before and after grinding. Where the physical property remains substantially unchanged substantial stability to grinding is indicated. Suitable physico-chemical properties for measurement include a melting point or DSC analysis, a X-ray diffraction pattern, an infrared absorption spectrum and a Raman spectrum, particularly the X-ray diffraction pattern.
Stability to mechanical grinding/milling may be tested, e.g., by employing a small stainless steel cylinder The cylinder is charged with a weighted amount of a crystal form of MRE-0094 and a stainless steel ball is added, the cylinder is capped and the unit is placed on a Retsch Mixer Mill (Type MM 200) for a total of 30 min at a frequency of 30/s (ball-milling).

[7] = system: neuropathic, diabetic foot ulcers (DFU); assay: Phase I study of topical MRE-0094 gel: wound closure; type: in vivo; conditions: DFU patients; for % Wound Closure (Day 28): topically once daily for 28 days; for Median Number of Days to: 50% Closure / Median Number of Days to: 75% Closure: topically once daily
Protocol: (§1) MRE-0094 is administered to patients with neuropathic, diabetic foot ulcers (DFU). Patients 18-80 years old are randomized in a 1:3 ratio to a standard DFU care and a vehicle gel, or a standard DFU care and a gel containing MRE-0094 as described herein above. Standard care include routine sharp debridement, pressure offloading, and maintaining a moist wound environment. Inclusion criteria includes full thickness wounds between 1 and 10 cm^2 in area. Exclusion criteria includes arterial insufficiency, renal or hepatic insufficiency, active infection, or osteomyelitis. Patients are enrolled into 3 groups, and receive drug at an escalating concentration by group of 5 μg/g, 50 μg/g, or 500 μg/g. Safety data are reviewed by an independent safety board prior to escalating dose. Drug or vehicle is applied topically once daily for 28 days. Outcome measures include adverse events and other safety assessments, plasma concentrations of the active agent MRE-0094, percent of wound closure, and rate of wound closure. Thirty-six patients are randomized (25 active agent, 11 vehicle gel, i.e., placebo) with an average age of 54.8 years, 78% are male.

diabetic ulcers = conditions: healthy BALB/C mice; cited from earlier work
[8] = Phase I study: plasma concentrations of MRE-0094 (systemic absorption); type: in vivo, patients; conditions: any topical dose concentration (5, 50, 500 μg/g gel)
Protocol: as §1

Compound: Nc1nc(OCCc2ccc(Cl)cc2)nc2c1ncn2[C@@H]1O[C@H](CO)[C@@H](O)[C@H]1O [A-type crystal form, 2-[2-(4-chlorophenyl)ethoxy]adenosine]
Temperature of solid form conversion in heat stress studies ([1]; isothermal heating, 2 min): approximately 164 °C
Temperature of conversion to B-type crystal form (VT-XRPD) ([1]; variable temperature XRPD): 120 °C
Temperature up to which the crystal form remains as such (VT-XRPD) ([1]; variable temperature XRPD): up to 115 °C
Solid material after moisture sorption identified by XRPD [2]: A-type crystal form
Moisture sorption: total weight gain [2]: approximately 4.3%
Moisture sorption: weight gain ([2]; between 5 and 55% RH): approximately 0.3%
Moisture sorption: additional weight gain ([2]; between 55% and 95% RH): 4.0%
Hygroscopicity based on the moisture sorption data [2]: hygroscopic
solubility at 2 days [3]: < 71000 µg/mL
solubility ([4]; aqueous with cosolvent or surfactant or cyclodextrin, EtOH:water - 1:1, RT): 9000 µg/mL (≈ 21.3 mM)
solubility ([4]; aqueous with cosolvent or surfactant or cyclodextrin, water:PG - 1:1, RT): 6000 µg/mL (≈ 14.2 mM)
solubility ([4]; organic solvent or mixture, 1,4-dioxane, RT): 17000 µg/mL (≈ 40.3 mM)
solubility ([4]; organic solvent or mixture, ACN, RT): < 3000 µg/mL
solubility ([4]; organic solvent or mixture, DCM, RT): < 2000 µg/mL
solubility ([4]; organic solvent or mixture, DMF, RT): 179000 µg/mL (≈ 424 mM)
solubility ([4]; organic solvent or mixture, EtOAc, RT): < 4000 µg/mL
solubility ([4]; organic solvent or mixture, EtOH, RT): 7000 µg/mL (≈ 16.6 mM)
solubility ([4]; organic solvent or mixture, EtOH:water - 19:1, RT): 12000 µg/mL (≈ 28.4 mM)
solubility ([4]; organic solvent or mixture, IPA, RT): 4000 µg/mL (≈ 9.48 mM)
solubility ([4]; organic solvent or mixture, MEK, RT): 4000 µg/mL (≈ 9.48 mM)
solubility ([4]; organic solvent or mixture, MeOH, RT): 4000 µg/mL (≈ 9.48 mM)
solubility ([4]; organic solvent or mixture, TFE, RT): 11000 µg/mL (≈ 26.1 mM)
solubility ([4]; organic solvent or mixture, THF, RT): 23000 µg/mL (≈ 54.5 mM)
solubility ([4]; organic solvent or mixture, acetone, RT): 5000 µg/mL (≈ 11.9 mM)
solubility ([4]; organic solvent or mixture, heptane, RT): < 4000 µg/mL
solubility ([4]; organic solvent or mixture, toluene, RT): < 4000 µg/mL
solubility ([4]; water, RT): < 300 µg/mL

Compound: Nc1nc(OCCc2ccc(Cl)cc2)nc2c1ncn2[C@@H]1O[C@H](CO)[C@@H](O)[C@H]1O [B-type crystal form, 2-[2-(4-chlorophenyl)ethoxy]adenosine]
Weight lost upon desorption [2]: Approximately 3.7%
Solid material after moisture sorption identified by XRPD [2]: B-type crystal form
Moisture sorption: total weight gain [2]: approximately 3.9%
Hygroscopicity based on the moisture sorption data [2]: hygroscopic

Compound: Nc1nc(OCCc2ccc(Cl)cc2)nc2c1ncn2[C@@H]1O[C@H](CO)[C@@H](O)[C@H]1O [I-type crystal form, 2-[2-(4-chlorophenyl)ethoxy]adenosine]
Solid form after dehydration ([5]; various drying conditions): either B-type, or a mixture of A-type and B-type crystals

Further lines, with some results ahead:

Solid form after desolvation ([5]; heated at 60° C. for eight days or dried in vacuo for six days): convert to A-type crystal form
Compound: Nc1nc(OCCc2ccc(Cl)cc2)nc2c1ncn2[C@@H]1O[C@H](CO)[C@@H](O)[C@H]1O [C-type crystal form, 2-[2-(4-chlorophenyl)ethoxy]adenosine]
Solid form after exposure to ambient conditions [5]: does not completely convert to A-type crystals

Solid form after exposure to ambient conditions ([5]; listed as F-type crystals): Amorphous/low crystalline material
Compound: Nc1nc(OCCc2ccc(Cl)cc2)nc2c1ncn2[C@@H]1O[C@H](CO)[C@@H](O)[C@H]1O [F-type crystal form, 2-[2-(4-chlorophenyl)ethoxy]adenosine]
Solid form after desolvation ([5]; vacuum oven and 60° C.): low crystalline mixture of A-type and B-type crystals

Stability to mechanical milling followed by vapor stress [6]: substantially stable
Weight lost upon desorption [2]: Approximately 2.2%
Solid material after moisture sorption identified by XRPD [2]: G-type crystal form
Moisture sorption: total weight gain [2]: approximately 2.4%
Hygroscopicity based on the moisture sorption data [2]: hygroscopic
Compound: Nc1nc(OCCc2ccc(Cl)cc2)nc2c1ncn2[C@@H]1O[C@H](CO)[C@@H](O)[C@H]1O [G-type crystal form, 2-[2-(4-chlorophenyl)ethoxy]adenosine]

Systemic absorption of MRE-0094 [8]: No systemic absorption
Compound: Nc1nc(OCCc2ccc(Cl)cc2)nc2c1ncn2[C@@H]1O[C@H](CO)[C@@H](O)[C@H]1O [MRE-0094, 2-[2-(4-chlorophenyl)ethoxy]adenosine]
% Wound Closure (Day 28) ([7]; 5 μg/g gel): 60.7%
Median Number of Days to: 50% Closure ([7]; 5 μg/g gel): 8 days
Median Number of Days to: 75% Closure ([7]; 5 μg/g gel): 14 days
% Wound Closure (Day 28) ([7]; 50 μg/g gel): 67.5%
Median Number of Days to: 50% Closure ([7]; 50 μg/g gel): 12 days
Median Number of Days to: 75% Closure ([7]; 50 μg/g gel): 28 days
% Wound Closure (Day 28) ([7]; 500 μg/g gel): 35.4%
Median Number of Days to: 50% Closure ([7]; 500 μg/g gel): 14 days
Median Number of Days to: 75% Closure ([7]; 500 μg/g gel): 36 days
Wound healing of diabetic ulcers (diabetic ulcers): promote wound healing
